Patent publication US5198564A, “Cis-platinum-diamine complexes and antitumorous compositions containing them, and process for their preparation” (Beijing Polytechnic University, priority 1987, dated 1993)

Columns and labels:
[1] = water
[2] = tested on: L1210 mouse leukemia cells; assay: Effect in prolonging the life of mouse with cancer (L1210), Test Example 1; type: in vivo, DBA/2 mice; details: i.p. once, 30 days observation
Experimental: To DBA/2 mice, L1210 mouse leukemia cells were inoculated into the abdominal cavity of each mouse used in the test. The test drugs were intraperitoneally administered once (e.g. after 24 hours of inoculation). […] The ratio (T/C %) of the survival time of a treated group (administered with a certain drug) to the survival time of a control group (administered with only physiological saline) was obtained and is shown in table VI with the average number of survival days for mice of the control group being evaluated as 100. The test drugs were aqueous suspensions obtained by adding small amounts of surfactants (e.g. tween-80) to the less soluble test compounds in water.

S180 sarcoma cells = assay: Effect in prolonging the life of mouse with cancer (S180), Test Example 2; type: in vivo, DBA/2 mice; details: i.p. once, 30 days observation
Experimental: To DBA/2 mice, S180 sarcoma cells were intraperitoneally inoculated with approximately 1×10^6 cells/mouse. The test drugs were intraperitoneally administered once (e.g. after 24 hours of inoculation). […] The ratio (T/C %) of survival time of test and control animals was obtained and is shown in table V with the average number of survival days for mice of the control group to which a physiological saline was administered being evaluated as 100. The test drugs were aqueous suspensions obtained by adding small amount of surfactants (e.g. tween-80) to the less soluble test compounds in water.

[3] = tested on: Sarcoma 180 and Leukemia L1210; details: reported in 1969; cited from earlier work
[4] = L1210 S180 printed, one value only, 8 mg/kg

## N[C@@H]1COCO[C@@H]1c1ccccc1.N[C@@H]1COCO[C@@H]1c1ccccc1.[I][Pt][I]
[1]
  Solubility: 20 µg/mL

## N[C@@H]1COCO[C@@H]1c1ccccc1.N[C@@H]1COCO[C@@H]1c1ccccc1.[Cl][Pt][Cl]
[1]
  Solubility: 60 µg/mL

## NCc1ccc(O)cc1.NCc1ccc(O)cc1.[I][Pt][I]
[1]
  Solubility: 800 µg/mL

## NCc1ccc(O)cc1.NCc1ccc(O)cc1.[Cl][Pt][Cl]
[1]
  Solubility: 1500 µg/mL

## NCc1ccccc1CN.[I][Pt][I]
[1]
  Solubility: 10 µg/mL

## NCc1ccccc1CN.[Cl][Pt][Cl]
[1]
  Solubility: 20 µg/mL

## NCc1cc(C(=O)O)c(C(=O)O)cc1CN.[I][Pt][I]
[1]
  Solubility: 1100 µg/mL

## NCc1cc(C(=O)O)c(C(=O)O)cc1CN.[Cl][Pt][Cl]
[1]
  Solubility: 2400 µg/mL

## NCc1ccc(Cl)cc1.NCc1ccc(Cl)cc1.[I][Pt][I]
[2]; L1210, 10 mg/kg
  T/C (%) of ST (ratio of survival time of test and control animals): > 182%
S180 sarcoma cells; 10 mg/kg
  T/C (%) of ST (ratio of survival time of test and control animals): > 140%

## NCc1ccccc1.NCc1ccccc1.[I][Pt][I]
[2]; [4]
  T/C (%) of ST (ratio of survival time of test and control animals): > 201%

## NCc1ccccc1.NCc1ccccc1.[Cl][Pt][Cl]
[2]; [4]
  T/C (%) of ST (ratio of survival time of test and control animals): > 201%

## NCc1ccccc1Br.NCc1ccccc1Br.[I][Pt][I]
[2]; L1210, 10 mg/kg
  T/C (%) of ST (ratio of survival time of test and control animals): > 175%
S180 sarcoma cells; 10 mg/kg
  T/C (%) of ST (ratio of survival time of test and control animals): > 180%

## NCc1ccccc1Br.NCc1ccccc1Br.[Cl][Pt][Cl]
[2]; L1210, 10 mg/kg
  T/C (%) of ST (ratio of survival time of test and control animals): > 180%
S180 sarcoma cells; 10 mg/kg
  T/C (%) of ST (ratio of survival time of test and control animals): > 184%

## NCc1ccc(Br)cc1.NCc1ccc(Br)cc1.[I][Pt][I]
[2]; L1210, 17.5 mg/kg
  T/C (%) of ST (ratio of survival time of test and control animals): > 150%
S180 sarcoma cells; 17.5 mg/kg
  T/C (%) of ST (ratio of survival time of test and control animals): > 158%

## NCc1ccc(Br)cc1.NCc1ccc(Br)cc1.[Cl][Pt][Cl]
[2]; L1210, 12 mg/kg
  T/C (%) of ST (ratio of survival time of test and control animals): > 205%
S180 sarcoma cells; 12 mg/kg
  T/C (%) of ST (ratio of survival time of test and control animals): > 198%

## NCc1ccc(F)cc1.NCc1ccc(F)cc1.[I][Pt][I] [I 11]
[2]; L1210, 13.5 mg/kg
  T/C (%) of ST (ratio of survival time of test and control animals): > 161%
S180 sarcoma cells; 13.5 mg/kg
  T/C (%) of ST (ratio of survival time of test and control animals): > 184%

## NCc1ccc(F)cc1.NCc1ccc(F)cc1.[Cl][Pt][Cl] [I 12]
[2]; L1210, 13.5 mg/kg
  T/C (%) of ST (ratio of survival time of test and control animals): > 177%
S180 sarcoma cells; 13.5 mg/kg
  T/C (%) of ST (ratio of survival time of test and control animals): > 175%

## NCc1ccc(Cl)c(O)c1.NCc1ccc(Cl)c(O)c1.[I][Pt][I] [I 20]
[2]; L1210, 15 mg/kg
  T/C (%) of ST (ratio of survival time of test and control animals): > 212%
S180 sarcoma cells; 15 mg/kg
  T/C (%) of ST (ratio of survival time of test and control animals): > 227%

## NCc1ccc(Cl)c(O)c1.NCc1ccc(Cl)c(O)c1.[Cl][Pt][Cl] [I 21]
[2]; L1210, 15 mg/kg
  T/C (%) of ST (ratio of survival time of test and control animals): > 238%
S180 sarcoma cells; 15 mg/kg
  T/C (%) of ST (ratio of survival time of test and control animals): > 251%

## C[C@@H](N)c1ccccc1.C[C@@H](N)c1ccccc1.[I][Pt][I] [I 28]
[2]; L1210, 17.5 mg/kg
  T/C (%) of ST (ratio of survival time of test and control animals): > 220%
S180 sarcoma cells; 17.5 mg/kg
  T/C (%) of ST (ratio of survival time of test and control animals): > 215%

## C[C@@H](N)c1ccccc1.C[C@@H](N)c1ccccc1.[Cl][Pt][Cl] [I 29]
[2]; L1210, 17.5 mg/kg
  T/C (%) of ST (ratio of survival time of test and control animals): > 246%
S180 sarcoma cells; 17.5 mg/kg
  T/C (%) of ST (ratio of survival time of test and control animals): > 250%

## C[C@H](N)c1ccccc1.C[C@H](N)c1ccccc1.[I][Pt][I] [I 30]
[2]; L1210, 17.5 mg/kg
  T/C (%) of ST (ratio of survival time of test and control animals): > 226%
S180 sarcoma cells; 17.5 mg/kg
  T/C (%) of ST (ratio of survival time of test and control animals): > 230%

## C[C@H](N)c1ccccc1.C[C@H](N)c1ccccc1.[Cl][Pt][Cl] [I 31]
[2]; L1210, 17.5 mg/kg
  T/C (%) of ST (ratio of survival time of test and control animals): > 260%
S180 sarcoma cells; 17.5 mg/kg
  T/C (%) of ST (ratio of survival time of test and control animals): > 245%

## NCc1ccc(C(=O)O)cc1.NCc1ccc(C(=O)O)cc1.[I][Pt][I] [I 36]
[2]; L1210, 10 mg/kg
  T/C (%) of ST (ratio of survival time of test and control animals): > 243%
S180 sarcoma cells; 10 mg/kg
  T/C (%) of ST (ratio of survival time of test and control animals): > 230%

## NCc1ccc(C(=O)O)cc1.NCc1ccc(C(=O)O)cc1.[Cl][Pt][Cl] [I 37]
[2]; L1210, 10 mg/kg
  T/C (%) of ST (ratio of survival time of test and control animals): > 250%
S180 sarcoma cells; 10 mg/kg
  T/C (%) of ST (ratio of survival time of test and control animals): > 255%

## NCc1ccco1.NCc1ccco1.[I][Pt][I] [I 42]
[2]; L1210, 17.5 mg/kg
  T/C (%) of ST (ratio of survival time of test and control animals): > 200%
S180 sarcoma cells; 17.5 mg/kg
  T/C (%) of ST (ratio of survival time of test and control animals): > 200%

## NCc1ccco1.NCc1ccco1.[Cl][Pt][Cl] [I 43]
[2]; L1210, 12 mg/kg
  T/C (%) of ST (ratio of survival time of test and control animals): > 225%
S180 sarcoma cells; 12 mg/kg
  T/C (%) of ST (ratio of survival time of test and control animals): > 230%

## NCc1ccc(CO)o1.NCc1ccc(CO)o1.[I][Pt][I] [I 44]
[2]; L1210, 17.5 mg/kg
  T/C (%) of ST (ratio of survival time of test and control animals): > 215%
S180 sarcoma cells; 17.5 mg/kg
  T/C (%) of ST (ratio of survival time of test and control animals): > 220%

## NCc1ccc(CO)o1.NCc1ccc(CO)o1.[Cl][Pt][Cl] [I 45]
[2]; L1210, 12 mg/kg
  T/C (%) of ST (ratio of survival time of test and control animals): > 226%
S180 sarcoma cells; 12 mg/kg
  T/C (%) of ST (ratio of survival time of test and control animals): > 218%

## N.N.[Cl][Pt][Cl] [PDD, Cis-platinum (II) diamine dichloride]
[3]
  anticancer activity: strong anticancer activity against Sarcoma 180 and Leukemia L1210

## NCc1ccc(Cl)cc1.NCc1ccc(Cl)cc1.O=C([O-])C1(C(=O)[O-])CCC1.[Pt+2] [V/7]
[2]; L1210, 10 mg/kg
  T/C (%) of ST (ratio of survival time of test and control animals): > 210%
S180 sarcoma cells; 10 mg/kg
  T/C (%) of ST (ratio of survival time of test and control animals): > 202%

## NCc1ccc(Cl)cc1.NCc1ccc(Cl)cc1.[Cl][Pt][Cl] [drawing 204]
[1]
  Solubility: 10 µg/mL

## NCc1ccc(Cl)c(O)c1.NCc1ccc(Cl)c(O)c1.[I][Pt][I] [drawing 209]
[1]
  Solubility: 400 µg/mL

## NCc1ccc(Cl)c(O)c1.NCc1ccc(Cl)c(O)c1.[Cl][Pt][Cl] [drawing 210]
[1]
  Solubility: 900 µg/mL

## NCc1ccc(C(=O)O)cc1.NCc1ccc(C(=O)O)cc1.[I][Pt][I] [drawing 211]
[1]
  Solubility: 1000 µg/mL

## NCc1ccc(C(=O)O)cc1.NCc1ccc(C(=O)O)cc1.[Cl][Pt][Cl] [drawing 212]
[1]
  Solubility: 2200 µg/mL

## NCc1ccco1.NCc1ccco1.[I][Pt][I] [drawing 213]
[1]
  Solubility: 60 µg/mL

## NCc1ccco1.NCc1ccco1.[Cl][Pt][Cl] [drawing 214]
[1]
  Solubility: 160 µg/mL

## NCc1ccc(CO)o1.NCc1ccc(CO)o1.[I][Pt][I] [drawing 215]
[1]
  Solubility: 200 µg/mL

## NCc1ccc(CO)o1.NCc1ccc(CO)o1.[Cl][Pt][Cl] [drawing 216]
[1]
  Solubility: 1100 µg/mL

## NCc1ccc(Cl)cc1.NCc1ccc(Cl)cc1.[Cl][Pt][Cl] [drawing 224]
[2]; L1210, 10 mg/kg
  T/C (%) of ST (ratio of survival time of test and control animals): > 197%
S180 sarcoma cells; 10 mg/kg
  T/C (%) of ST (ratio of survival time of test and control animals): > 140%

## N.N.O=C1[O][Pt][O]C(=O)C12CCC2 [reference compound]
[1]
  Solubility: 18500 µg/mL
